In ChEMBL document CHEMBL4130373, “Design, synthesis and biological evaluation of 4-anilinoquinoline derivatives as novel potent tubulin depolymerization agents” (Eur J Med Chem, 2017):
The source made the active and inactive calls. The rule behind the calls is not given here.

Tests used:
MDA-MB-231 = assay: Antiproliferative activity against human MDA-MB-231 cells after 48 hrs by MTT assay; type: functional, cell-based; conditions: MDA-MB-231, 48 h
HCT-8 = assay: Antiproliferative activity against human HCT8 cells after 48 hrs by MTT assay; type: functional, cell-based; conditions: HCT-8, 48 h
A549 = assay: Antiproliferative activity against human A549 cells after 48 hrs by MTT assay; type: functional, cell-based; conditions: A549, 48 h
A2780S [1] = assay: Antiproliferative activity against human A2780S cells after 48 hrs by MTT assay; type: functional, cell-based
MCF7 = assay: Antiproliferative activity against human MCF7 cells after 48 hrs by MTT assay; type: functional, cell-based; conditions: MCF7, 48 h
L02 = assay: Antiproliferative activity against human LO2 cells after 48 hrs by MTT assay; type: cell-based; conditions: L02, 48 h
HEK293 = assay: Antiproliferative activity against HEK293 cells after 48 hrs by MTT assay; type: cell-based; conditions: Homo sapiens, HEK293, 48 h
A2780S [2] = assay: Induction of alpha-tubulin depolymerization in human A2780S cells at 100 nM after 24 hrs by DAPI staining based immunofluorescence microscopic method; type: cell-based
HepG2 = assay: Binding affinity to beta-tubulin colchicine binding site in human HepG2 cells assessed as reduction in EBI-beta-tubulin adduct formation at 5 uM preincubated for 2 hrs followed by EBI addition measured after 1.5 hrs by Western blot analysis; type: cell-based
[3] = Solubility of the compound in physiological saline at 1 mg; type: physicochemical; conditions: buffer
[4] = Antiproliferative activity against human HCT8/T cells after 48 hrs by MTT assay; type: functional, cell-based; conditions: HCT-8, 48 h
A2780/Taxol = assay: Antiproliferative activity against human A2780T cells after 48 hrs by MTT assay; type: functional, cell-based
[5] = Resistance index, ratio of IC50 for human HCT8/T cells to IC50 for human HCT8 cells; type: functional
[6] = Resistance index, ratio of IC50 for human A2780T cells to IC50 for human A2780S cells; type: functional
[7] = Antiproliferative activity against human HCT8/V cells after 48 hrs by MTT assay; type: functional, cell-based; conditions: HCT-8, 48 h
[8] = Resistance index, ratio of IC50 for human HCT8/V cells to IC50 for human HCT8 cells; type: functional

## COc1cc2c(c(OC)c1OC)-c1ccc(OC)c(=O)cc1[C@@H](NC(C)=O)CC2 [COLCHICINE]
MDA-MB-231
  IC50: 38.2 nM
HCT-8
  IC50: 13.4 nM
A549
  IC50: 32.7 nM
A2780S [1]
  IC50: 12.3 nM
MCF7
  IC50: 13.4 nM
L02
  IC50: 26.5 nM
HEK293
  IC50: 10.2 nM
A2780S [2]
  Activity: Active
HepG2
  Activity: Active

## COC(=O)CCCC(=O)Nc1cc(N(C)c2cc(C)nc3ccccc23)ccc1OC
MDA-MB-231
  IC50: 186 nM
[3]
  solubility: Insoluble

## CCOC(=O)C(=O)Nc1cc(N(C)c2cc(C)nc3ccccc23)ccc1OC
MDA-MB-231
  IC50: 443 nM
[3]
  solubility: Soluble

## COc1ccc(N(C)c2ccnc3ccccc23)cc1
MDA-MB-231
  IC50: > 500 nM
[3]
  solubility: Insoluble

## COc1ccc(N(C)c2cc(C)nc3ccccc23)cc1N
MDA-MB-231
  IC50: 3.2 nM
[3]
  solubility: Insoluble

## COC(=O)C(=O)Nc1cc(N(C)c2cc(C)nc3ccccc23)ccc1OC
MDA-MB-231
  IC50: > 500 nM
[3]
  solubility: Insoluble

## COc1ccc(N(C)c2cc(Cl)nc3ccccc23)cc1N
MDA-MB-231
  IC50: 43.1 nM
[3]
  solubility: Insoluble

## COc1ccc(N(C)c2cc(C)nc3ccccc23)cc1
MDA-MB-231
  IC50: 6.6 nM
[3]
  solubility: Insoluble

## CSc1ccc(N(C)c2cc(C)nc3ccccc23)cc1
MDA-MB-231
  IC50: 15.5 nM
[3]
  solubility: Soluble

## CCCCC(=O)Nc1cc(N(C)c2cc(C)nc3ccccc23)ccc1OC
MDA-MB-231
  IC50: 82.4 nM
[3]
  solubility: Insoluble

## COc1ccc(N(C)c2cc(C)nc3ccccc23)cc1NC(=O)CCCCCl
MDA-MB-231
  IC50: 363 nM
[3]
  solubility: Insoluble

## CC(=O)O[C@H]1C(=O)[C@@]2(C)[C@H]([C@H](OC(=O)c3ccccc3)[C@]3(O)C[C@H](OC(=O)[C@H](O)[C@@H](NC(=O)c4ccccc4)c4ccccc4)C(C)=C1C3(C)C)[C@]1(OC(C)=O)CO[C@@H]1C[C@@H]2O [PACLITAXEL]
HCT-8
  IC50: 17.4 nM
A2780S [1]
  IC50: 12.3 nM
[4]
  IC50: 9880 nM
A2780/Taxol
  IC50: 25100 nM
[5]
  Ratio IC50: 567.4
[6]
  Ratio IC50: 2042.3
A2780S [2]
  Activity: inactive

## CC[C@]1(O)C[C@@H]2CN(CCc3c([nH]c4ccccc34)[C@@](C(=O)OC)(c3cc4c(cc3OC)N(C)[C@H]3[C@@](O)(C(=O)OC)[C@H](OC(C)=O)[C@]5(CC)C=CCN6CC[C@]43[C@@H]65)C2)C1 [VINBLASTINE]
HCT-8
  IC50: 20.2 nM
[7]
  IC50: 2060 nM
[8]
  Ratio IC50: 101.8

## CCC(=O)Nc1cc(N(C)c2cc(C)nc3ccccc23)ccc1OC
MDA-MB-231
  IC50: 18.5 nM
[3]
  solubility: Soluble

## COc1ccc(N(C)c2cc(C)nc3ccccc23)cc1NC(=O)CN(C)CCC#N
MDA-MB-231
  IC50: > 500 nM
[3]
  solubility: Insoluble
